Assay results reported in PMC7503308, “A Novel Urease Inhibitor of Ruminal Microbiota Screened through Molecular Docking” (International Journal of Molecular Sciences, 2020).
Entries after “also recorded” stand apart in the source; their conditions may differ.

Test system: Caco-2 cells
Assay: CCK8 colorimetric cytotoxicity assay
Type: cell-based
Details: concentration below 100 μM, 24 h, p > 0.05
Experimental: A standard CCK8 colorimetric assay was employed for the evaluation of cytotoxic activity of compound 6238-0047 using 96-well flat bottomed microplates. Dulbecco’s Modified Eagle Medium (GIBCO) with 10% FBS (fetal bovine serum, FBS, Gibco) and 1% NEAA was used for the culturing of Caco-2 cells (ATCC, Manassas, VA, USA), and the medium was supplemented with 100 μg/mL of streptomycin and 100 IU/mL of penicillin. The medium was kept in 5% CO2 and incubated at 37 °C. The exponentially grown cells were harvested, counted using a hemocytometer and diluted with the medium. The cell culture was diluted to a density of 1 × 10^5 cells/mL and transferred into a 96-well plate with 135 μL or […]. The medium was incubated for 24 h for cell attachment. Following this, 15 μL of compounds with different final concentrations of 1, 10, 25, 50, and 100 μM in the experimental group and fresh medium as a control group, were added to a plate with five replicates for each. After 24 h of incubation at 37 °C and kept in 5% CO2, 15 μL of CCK8 was added to each well and after 2 h the absorbance was measured at 450 nm using a microplate reader. The formula for calculating the relative cell viability was as follows:Relative cell viability (%) = absorbance of experimental group/absorbance of control group × 100%

COc1ccc(-c2ccc(CCC(=O)O)n2NC(N)=O)cc1 [6238-0047, 3-[1-[(aminocarbonyl)amino]-5-(4-methoxyphenyl)-1H-pyrrol-2-yl] propanoic acid]
Relative cell viability of Caco-2 cell culture: no significant adverse effect; also recorded: no significant influence; also recorded: no cytotoxic effect
